Converted amounts (≈) assume the structure as drawn.
Columns and labels:
[1] = Cytotoxicity assay (HepG2, CellTiter-Blue); type: cell-based; conditions: human, HepG2 cells, 3 days treatment
Description: The cytotoxicity of compounds of present invention was assessed by HepG2 assay. HepG2 cells (ATCC HB-8065™) were seeded into 96-well plates (1.2×10^4 cells per well) and treated with compounds for 3 days, cell viability was measured at day 3 post compound treatment using the CellTiter-Blue® Cell Viability Assay (Promega, Cat. No. G8082). 20 μL of Cell titer blue buffer were added to each well of the cells, incubated for 3 hours at 37° C., and the fluorescence value was measured by a plate reader (Molecular Device SpectraMax M2). The CC50 value of each compound is plotted with GraphPad Prism using four parameter logistic equation.

[2] = Lyophilisation solubility assay (LYSA); type: physicochemical; conditions: aqueous buffer, thermodynamic from solid; 0.05 M phosphate buffer, pH 6.5; * = detection limit
Description: The solubility of compounds of present invention was assessed by LYSA assay. Samples were prepared in duplicate from 10 mM DMSO stock solutions (20 μL) diluted in 30 μL pure DMSO. After evaporation of DMSO with a centrifugal vacuum evaporator, the residue was dissolved in 0.05 M phosphate buffer (150 μL, pH 6.5), stirred for one hour and shook for two hours. After one night, the solution was filtered using a microtiter filter plate. Then the filtrate and its 1/10 dilution were analyzed by HPLC-UV. In addition, a four-point calibration curve was prepared from the 10 mM stock solutions and used for the solubility determination of the compounds.

E. coli (BW25113) = assay: 50% growth inhibitory concentration (IC50) determination assay, E. coli; type: cell-based; conditions: Escherichia coli, growth inhibition, Iso-Sensitest broth, OD 600 nm over 16 h, 35±2° C., read-out: IC50 (μM) E. coli K12 BW25113
Description: (§1) The in vitro antimicrobial activity of the compounds against E. coli (BW25113, obtained from Coli Genetic Stock Center, #7636) and K. pneumoniae (ATCC10031) was determined according to the following procedure:
(§2) The assay used a 10-points Iso-Sensitest broth medium to measure quantitatively the in vitro activity of the compounds against E. coli BW25113 and K. pneumoniae ATCC 10031.
(§3) Stock compounds in DMSO were serially two-fold diluted (range from 50 to 0.097 μM final concentration) in 384 wells microtiter plates and inoculated with 49 μL the bacterial suspension in Iso-Sensitest broth medium to have a final cell concentration of ˜5×10^5 CFU/mL in a final volume/well of 50 μL/well. Microtiter plates were incubated at 35±2° C.
(§4) Bacterial cell growth was determined with the measurement of optical density at k=600 nm each 20 minutes over a time course of 16 h.
(§5) Growth inhibition was calculated during the logarithmic growth of the bacterial cells with determination of the concentration inhibiting 50% (IC50) of the growth.

E. coli (ATCC 25922) = assay: Minimal Inhibitory Concentration (MIC) assay; type: cell-based; conditions: Escherichia coli, ATCC25922; CAMHB, 20 hours at 35° C.; read-out: MIC (μg/mL) E. coli ATCC 25922
Description: The in vitro potency of compounds to inhibit E. coli (ATCC 25922) growth was assessed by MIC (Minimal Inhibitory Concentration) assay. Samples were prepared from 10 mM DMSO stock solutions. After serial 2-fold dilution in DMSO in a master plate (Greiner, Cat No: 651201), 180 μL sterile distilled water was added to 20 μL each aliquot of the samples. Then […], diluted compounds were transferred into a new assay plate (Costar, 3599).
The growth medium […] Mueller Hinton Broth (CAMHB) was prepared by adding the 20 mg per liter CaCl2) and 20 mg per liter MgCl2 into the MHB medium (Jianglai Company, sterilized).
Vials of each of the test microorganisms were maintained frozen in the vapor phase of a liquid nitrogen freezer. Took out the bacteria E. coli ATCC 25922 (KWIKSTIK, 0335K) from liquid nitrogen freezer, thawed it in room temperature, and diluted the bacterial in the CAMHB medium to achieve a final inoculum of 5×10^5 CFU/mL. 90 μL CAMHB with bacteria was dispensed to the assay plate and pipetted 5 times.
Then the assay plates were incubated for 20 hours at 35° C. in ambient air. Following incubation, the MIC (μg/mL), the lowest concentration of drug that inhibits visible growth of the microorganism was read and recorded throw the microscope.

[3] = system: K. pneumoniae (ATCC10031); assay: 50% growth inhibitory concentration (IC50) determination assay, K. pneumoniae; type: cell-based; conditions: Klebsiella pneumoniae, growth inhibition, Iso-Sensitest broth, OD 600 nm over 16 h, * = detection limit
Description: as §1, §2, §3, §4, §5

SMILES	CC50 at 3 days [1] [nM]	solubility thermodynamic [2] [µg/mL]	IC50 (E. coli (BW25113)) [µM]	MIC (E. coli (ATCC 25922)) [µg/mL]	IC50 [3] [µM]
CNc1cc(F)cc2c1[nH]c1ncc(-c3ccc4ncc(C(=O)O)c(=O)n4c3)c(N3CCC(F)(F)C3)c12 [Example 2.05, 7-(4-(3,3-Difluoropyrrolidin-1-yl)-6-fluoro-8-(methylamino)-9H-pyrido[2,3-b]indol-3-yl)-4-oxo-4H-pyrido[1,2-a]pyrimidine-3-carboxylic acid]	31800				
CNc1cc(F)c(F)c2c1[nH]c1ncc(-c3cc(CN(C)CCOC)c4ncc(C(=O)O)c(=O)n4c3)c(N(C)C)c12 [Example 2.02, 7-[4-(Dimethylamino)-5,6-difluoro-8-(methylamino)-9H-pyrido[2,3-b]indol-3-yl]-9-[[2-methoxyethyl(methyl)amino]methyl]-4-oxo-pyrido[1,2-a]pyrimidine-3-carboxylic acid]		255 (≈ 451 µM)	0.738	0.0996 (≈ 0.176 µM)	≤ 0.098
CNc1cc(F)cc2c1[nH]c1ncc(-c3ccc4ncc(C(=O)O)c(=O)n4c3)c(C#N)c12 [Example 1.34, 7-[4-Cyano-6-fluoro-8-(methylamino)-9H-pyrido[2,3-b]indol-3-yl]-4-oxo-pyrido[1,2-a]pyrimidine-3-carboxylic acid]	> 100000			0.364 (≈ 0.85 µM)	
CNc1cc(F)c(F)c2c1[nH]c1ncc(-c3ccc4ncc(C(=O)O)c(=O)n4c3)c(N3CCC(F)(CN(C)C)C3)c12 (stereo not shown) [Example 1.18, 7-(4-(3-((Dimethylamino)methyl)-3-fluoropyrrolidin-1-yl)-5,6-difluoro-8-(methylamino)-9H-pyrido[2,3-b]indol-3-yl)-4-oxo-4H-pyrido[1,2-a]pyrimidine-3-carboxylic acid]	> 100000	200 (≈ 354 µM)		0.398 (≈ 0.704 µM)	
CNc1cc(F)c(F)c2c1[nH]c1ncc(-c3cc(CN(C)C)c4ncc(C(=O)O)c(=O)n4c3)c(N3CCCC3)c12 [Example 1.15, 7-(5,6-Difluoro-8-(methylamino)-4-(pyrrolidin-1-yl)-9H-pyrido[2,3-b]indol-3-yl)-9-((dimethylamino)methyl)-4-oxo-4H-pyrido[1,2-a]pyrimidine-3-carboxylic acid]		19 (≈ 34.7 µM)	0.663	0.152 (≈ 0.278 µM)	≤ 0.098
CNc1c(F)c(F)cc2c1[nH]c1ncc(-c3ccc4ncc(C(=O)O)c(=O)n4c3)c(N3CCC[C@H]3CN(C)C)c12 [Example 1.26, (S)-7-(4-(2-((Dimethylamino)methyl)pyrrolidin-1-yl)-6,7-difluoro-8-(methylamino)-9H-pyrido[2,3-b]indol-3-yl)-4-oxo-4H-pyrido[1,2-a]pyrimidine-3-carboxylic acid]	> 100000	> 770			
CNc1cc(F)cc2c1[nH]c1ncc(-c3ccc4ncc(C(=O)O)c(=O)n4c3)c(N3CCC(CN(C)C4CC4)C3)c12 (stereo not shown) [Example 1.21, 7-(4-(3-((cyclopropyl(methyl)amino)methyl)pyrrolidin-1-yl)-6-fluoro-8-(methylamino)-9H-pyrido[2,3-b]indol-3-yl)-4-oxo-4H-pyrido[1,2-a]pyrimidine-3-carboxylic acid]		230 (≈ 414 µM)	4.78	0.392 (≈ 0.706 µM)	0.155
CNc1cc(F)c(F)c2c1[nH]c1ncc(-c3cc(CN4CCOCC4)c4ncc(C(=O)O)c(=O)n4c3)c(N(C)C)c12 [Example 2.01, 7-[4-(Dimethylamino)-5,6-difluoro-8-(methylamino)-9H-pyrido[2,3-b]indol-3-yl]-9-(morpholinomethyl)-4-oxo-pyrido[1,2-a]pyrimidine-3-carboxylic Acid]		36 (≈ 63.9 µM)	0.523	0.0223 (≈ 0.0396 µM)	≤ 0.098
CCNc1cc(F)cc2c1[nH]c1ncc(-c3ccn4c(=O)c(C(=O)O)cnc4c3)c(-n3ccc(C(F)(F)F)n3)c12 [Example 1.31, 8-[8-(Ethylamino)-6-fluoro-4-[3-(trifluoromethyl)pyrazol-1-yl]-9H-pyrido[2,3-b]indol-3-yl]-4-oxo-pyrido[1,2-a]pyrimidine-3-carboxylic acid]	30800				
